According to patent US9649310B2, “Certain kynurenine-3-monooxygenase inhibitors, pharmaceutical compositions, and methods of use thereof” (CHDI Foundation, Inc., priority 2011, dated 2017):

Tested on: not listed separately
Assay: Solubility remark made during LCMS characterisation
Format: physicochemical
Settings: solvent for LCMS analysis

| Structure (SMILES) | solubility (remark in words) |
| --- | --- |
| O=c1[nH]nc(-c2cc(-c3ccc(Cl)c(Cl)c3)ncn2)[nH]1 | very unsoluble compound- LCMS unobtainable ^1H NMR (250 MHz, DMSO- d6) ppm 9.27-9.32 (1 H, m), 8.39-8.47 (2 H, m), 8.17- 8.25 (1 H, m), 7.76-7.85 (1 H, m) |
| Cn1[nH]cc(-c2cc(-c3ccc(Cl)c(Cl)c3)ncn2)c1=O | Compound is insufficiently soluble in any acceptable solvent in order to obtain a meaningful LCMS 1H NMR (500 MHz, DMSO-d6) d ppm 8.88 (1 H, s), 8.44 (1 H, br. s.), 8.26 (1 H, br. s.), 8.19 (1 H, d), 8.06 (1 H, br. s.), 7.85 (1 H, d), 3.45 (3 H, s) |

Molecular target: T1, KMO mouse enzyme (Mus musculus, UniProt Q91WN4)
T1 construct: KMO enzyme prepared at Evotec from mouse liver (4-6 weeks old) via mitochondria isolation; from tissue; host or cells: mouse liver (4-6 weeks old), mitochondria isolation at Evotec
Assay: Mouse KMO enzyme assay: L-kynurenine hydroxylation to 3OH-KYN by LC/MS
Format: biochemical
Settings: compound at 10 μM; KMO from mouse liver mitochondria; read-out: INH.Mouse @ 10 μM
Description: Product is quantified by multiple reaction monitoring (MRM method).
• Compound: Stock concentrations: 10 mM in 100% DMSO • Enzyme: KMO enzyme prepared at Evotec from mouse liver (4-6 weeks old) via mitochondria isolation as described in the literature • Substrate: L-Kynurenine (Sigma: Cat #K3750, stock concentration:
10 mM in 100 mM potassium phosphate buffer, pH 7.4)

T1 sequence (Q91WN4 whole entry): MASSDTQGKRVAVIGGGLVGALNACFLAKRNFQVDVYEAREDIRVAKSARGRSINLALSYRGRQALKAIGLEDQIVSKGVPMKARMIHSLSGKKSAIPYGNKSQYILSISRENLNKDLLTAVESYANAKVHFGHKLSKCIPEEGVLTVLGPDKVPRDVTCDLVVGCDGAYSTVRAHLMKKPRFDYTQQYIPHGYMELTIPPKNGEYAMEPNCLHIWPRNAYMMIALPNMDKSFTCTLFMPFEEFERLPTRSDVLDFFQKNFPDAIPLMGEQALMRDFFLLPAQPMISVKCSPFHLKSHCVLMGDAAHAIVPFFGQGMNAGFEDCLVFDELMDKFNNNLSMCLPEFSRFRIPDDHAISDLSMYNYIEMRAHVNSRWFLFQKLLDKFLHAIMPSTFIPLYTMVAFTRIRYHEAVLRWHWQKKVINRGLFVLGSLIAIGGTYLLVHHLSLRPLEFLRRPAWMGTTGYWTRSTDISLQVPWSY

| Structure (SMILES) | inhibition at 10 µM |
| --- | --- |
| O=C(O)C1CNCCN1c1cc(-c2ccc(Cl)c(Cl)c2)ncn1 (stereo not shown) [1-(6-(3,4-dichlorophenyl)pyrimidin-4-yl)piperazine-2-carboxylic acid] | 30% |
| O=C(O)C1CCN(c2cc(-c3ccc(Cl)c(Cl)c3)ncn2)C1 (stereo not shown) [1-(6-(3,4-dichlorophenyl)pyrimidin-4-yl)pyrrolidine-3-carboxylic acid] | 14% |
| Clc1cc(-c2cc(-c3ncco3)ncn2)ccc1OC1CC1 [2-(6-(3-chloro-4-cyclopropoxyphenyl)pyrimidin-4-yl)oxazole] | 71% |
| O=c1[nH]c(-c2cc(-c3ccc(OC4CC4)c(Cl)c3)ncn2)no1 [3-[6-(3-chloro-4-cyclopropoxyphenyl)pyrimidin-4-yl]-4,5-dihydro-1,2,4-oxadiazol-5-one] | 93% |
| FC(F)(F)c1c[nH]c(-c2cc(-c3ccc(Cl)c(Cl)c3)ncn2)n1 [4-(3,4-dichlorophenyl)-6-(4-(trifluoromethyl)-1H-imidazol-2-yl)pyrimidine] | 0% |
| Clc1cc(-c2cc(-c3nn[nH]n3)ncn2)ccc1OC1CC1 [4-(3-chloro-4-cyclopropoxyphenyl)-6-(1H-1,2,3,4-tetrazol-5-yl)pyrimidine] | 100% |
| O=C(O)C1CN(c2cc(-c3ccc(Cl)c(Cl)c3)ncn2)CCN1 (stereo not shown) [4-(6-(3,4-dichlorophenyl)pyrimidin-4-yl)piperazine-2-carboxylic acid] | 0% |
| CC(C)Oc1ccc(-c2cc(C3CNC(C(=O)O)C3)ncn2)cc1Cl (stereo not shown) [4-(6-(3-chloro-4-isopropoxyphenyl)pyrimidin-4-yl)pyrrolidine-2-carboxylic acid] | 71% |
| O=C(O)C1CCC(c2cc(-c3ccc(OC4CC4)c(Cl)c3)ncn2)N1 (stereo not shown) [5-(6-(3-chloro-4-cyclopropoxyphenyl)pyrimidin-4-yl)pyrrolidine-2-carboxylic acid] | 84% |
| O=C(O)[C@H]1CCCN1c1cc(-c2ccc(Cl)c(Cl)c2)ncn1 [(R)-1-(6-(3,4-dichlorophenyl)pyrimidin-4-yl)pyrrolidine-2-carboxylic acid] | 7% |
| O=C(O)[C@@H]1CCCN1c1cc(-c2ccc(Cl)c(Cl)c2)ncn1 [(S)-1-(6-(3,4-dichlorophenyl)pyrimidin-4-yl)pyrrolidine-2-carboxylic acid] | 11% |
